Data: paper PMC9774391 (ACS Omega, 2022)

Assays:
MAO-A = target: T1, MAO-A (Homo sapiens, UniProt P21397); experiment: In vitro MAO-A inhibition assay (fluorometric); format: biochemical; conditions: for inhibition at 1000 µM: 10^–3 M; for inhibition at 100 µM: 10^–4 M
T1 sequence (P21397 1-527): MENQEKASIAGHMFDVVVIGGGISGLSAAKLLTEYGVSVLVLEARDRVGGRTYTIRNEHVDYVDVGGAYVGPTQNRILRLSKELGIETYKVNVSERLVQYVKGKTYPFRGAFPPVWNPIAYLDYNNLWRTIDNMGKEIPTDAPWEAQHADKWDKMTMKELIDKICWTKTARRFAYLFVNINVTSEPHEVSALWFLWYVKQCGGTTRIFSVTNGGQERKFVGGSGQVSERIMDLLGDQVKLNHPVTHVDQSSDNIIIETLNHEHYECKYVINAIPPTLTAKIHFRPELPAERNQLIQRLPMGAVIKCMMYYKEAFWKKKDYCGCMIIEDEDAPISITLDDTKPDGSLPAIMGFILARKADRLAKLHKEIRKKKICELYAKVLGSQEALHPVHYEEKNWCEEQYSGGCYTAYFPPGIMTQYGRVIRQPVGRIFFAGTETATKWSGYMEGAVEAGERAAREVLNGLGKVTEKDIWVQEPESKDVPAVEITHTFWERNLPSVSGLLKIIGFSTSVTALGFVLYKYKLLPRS

Cytotoxicity test (MTT) = format: cell-based; conditions: NIH/3T3 mouse embryonic fibroblast cells (ATCC CRL-1658), NIH/3T3 mouse fibroblast healthy cell line
Description: The NIH/3T3 cells were incubated according to the manufacturer’s recommendations. In 96-well plates, NIH/3T3 cells were seeded at a density of 1 × 10^4 cells per well. The MTT test was conducted in line with the previously mentioned standards.[19],[22],[23],[28],[30]

BChE = BChE (Homo sapiens, UniProt P06276); experiment: biochemical; conditions: for inhibition at 1000 µM: 10^–3 M; for inhibition at 10 µM: 10^–5 M; for inhibition at 1 µM: 10^–6 M; for inhibition at 0.1 µM: 10^–7 M; for inhibition at 0.01 µM: 10^–8 M; for inhibition at 0.001 µM: 10^–9 M; for inhibition at 100 µM: 10^–4 M
Sequence of BChE (P06276 29-602): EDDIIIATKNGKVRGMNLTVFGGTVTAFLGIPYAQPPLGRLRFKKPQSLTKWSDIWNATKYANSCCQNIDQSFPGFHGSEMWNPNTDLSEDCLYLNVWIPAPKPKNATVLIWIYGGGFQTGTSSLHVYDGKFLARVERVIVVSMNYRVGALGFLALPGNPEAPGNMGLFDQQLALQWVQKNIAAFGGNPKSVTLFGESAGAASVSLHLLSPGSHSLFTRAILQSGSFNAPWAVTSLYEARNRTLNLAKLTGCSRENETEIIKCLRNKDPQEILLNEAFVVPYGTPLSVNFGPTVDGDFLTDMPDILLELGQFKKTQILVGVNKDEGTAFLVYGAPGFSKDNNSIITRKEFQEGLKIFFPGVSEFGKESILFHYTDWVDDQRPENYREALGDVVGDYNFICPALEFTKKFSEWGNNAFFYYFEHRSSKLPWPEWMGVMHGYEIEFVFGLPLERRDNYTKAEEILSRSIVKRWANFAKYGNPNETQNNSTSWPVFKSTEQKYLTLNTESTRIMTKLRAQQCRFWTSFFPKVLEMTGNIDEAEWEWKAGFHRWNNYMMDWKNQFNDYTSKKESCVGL
Description: (§1) According to the modified Ellman approach outlined in our team’s earlier work, the AChE and BChE inhibitory activities of the obtained compounds were evaluated.[18]−[21]

AChE = AChE (Homo sapiens, UniProt P22303); experiment: biochemical; conditions: for inhibition at 1000 µM: 10^–3 M; for inhibition at 100 µM: 10^–4 M; for inhibition at 10 µM: 10^–5 M; for inhibition at 1 µM: 10^–6 M; for inhibition at 0.1 µM: 10^–7 M; for inhibition at 0.01 µM: 10^–8 M; for inhibition at 0.001 µM: 10^–9 M
Sequence of AChE (P22303 32-614): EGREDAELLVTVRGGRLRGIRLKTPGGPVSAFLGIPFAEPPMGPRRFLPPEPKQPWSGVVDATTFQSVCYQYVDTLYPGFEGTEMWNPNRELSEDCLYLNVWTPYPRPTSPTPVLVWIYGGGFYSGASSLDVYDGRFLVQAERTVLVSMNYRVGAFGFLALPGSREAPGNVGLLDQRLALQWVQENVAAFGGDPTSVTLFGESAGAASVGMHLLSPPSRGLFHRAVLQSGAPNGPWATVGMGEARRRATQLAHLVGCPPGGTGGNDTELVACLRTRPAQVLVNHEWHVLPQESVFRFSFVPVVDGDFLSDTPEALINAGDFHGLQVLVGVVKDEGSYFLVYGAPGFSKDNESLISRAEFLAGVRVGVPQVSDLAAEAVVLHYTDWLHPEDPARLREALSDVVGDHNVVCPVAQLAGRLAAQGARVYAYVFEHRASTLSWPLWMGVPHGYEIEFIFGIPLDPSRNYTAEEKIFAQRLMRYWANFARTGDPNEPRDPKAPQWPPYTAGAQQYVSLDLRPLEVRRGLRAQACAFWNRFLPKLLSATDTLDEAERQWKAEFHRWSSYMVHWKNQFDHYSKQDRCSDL
Description: as §1

MAO-B = target: T2, MAO-B (Homo sapiens, UniProt P27338); experiment: In vitro MAO-B inhibition assay (fluorometric); format: biochemical; conditions: for inhibition at 1000 µM: 10^–3 M; for inhibition at 100 µM: 10^–4 M
T2 sequence (P27338 1-520): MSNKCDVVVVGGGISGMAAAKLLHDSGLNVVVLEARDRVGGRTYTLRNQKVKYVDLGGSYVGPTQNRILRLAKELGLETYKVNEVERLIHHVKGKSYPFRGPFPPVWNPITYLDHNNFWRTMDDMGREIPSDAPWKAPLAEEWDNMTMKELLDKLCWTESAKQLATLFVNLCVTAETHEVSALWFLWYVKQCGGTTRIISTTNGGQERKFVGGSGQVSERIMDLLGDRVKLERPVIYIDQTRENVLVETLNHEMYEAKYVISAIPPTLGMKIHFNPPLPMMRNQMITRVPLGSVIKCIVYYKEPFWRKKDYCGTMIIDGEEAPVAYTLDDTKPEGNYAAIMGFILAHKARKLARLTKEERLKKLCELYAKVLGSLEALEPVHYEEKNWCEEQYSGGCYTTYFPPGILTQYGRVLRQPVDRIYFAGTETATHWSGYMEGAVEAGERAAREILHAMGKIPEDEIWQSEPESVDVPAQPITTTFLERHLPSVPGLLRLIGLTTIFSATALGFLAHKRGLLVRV

[1] = DPPH free-radical scavenging activity assay; conditions: for IC50: serial dilution 10^–3–10^–9 M, read-out: IC50 on DPPH antioxidant activity
Description: This approach is based on evaluating the free-radical scavenging abilities of the stable 1,1-diphenyl-2-picrylhydrazyl (DPPH) radical. To create the DPHH solution, 9.86 mg of DPPH was weighed and diluted to 25 mL with methanol. The test wells were then filled with 100 μL of the DPPH solution and 100 μL of the test solutions. Only 200 μL of methanol was used for the blank reading, while the control reading required the usage of 100 μL each of methanol and the DPPH solution. Following incubation, a spectrophotometric measurement at 517 nm was carried out.[26],[27]

Beta Amyloid 1–42 (Aβ42) = target: T3, Beta Amyloid 1–42 (Aβ42) (Homo sapiens, UniProt P05067); experiment: Beta Amyloid 1–42 (Aβ42) inhibitor screening assay; format: biochemical; conditions: 10^–4 M; read-out: % β-amyloid plaque inhibition
T3 construct: The Beta Amyloid 1–42 (Aβ42) Ligand Screening Assay kit; purchased BioVision, Milpitas, CA
T3 sequence (P05067 672-713 limits assumed): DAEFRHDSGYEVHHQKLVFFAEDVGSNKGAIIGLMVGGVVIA
Source text: The Beta Amyloid 1–42 (Aβ42) Ligand Screening Assay kit (BioVision, Milpitas, CA) technique based on the fluorometric approach served as the basis for the experimental process.[21],[28],[29]

| Structure (SMILES) | inhibition at 1000 µM (MAO-A) [%] | inhibition at 100 µM (MAO-A) [%] | IC50 (Cytotoxicity test (MTT)) [nM] | IC50 (BChE) [nM] | inhibition at 1000 µM (BChE) [%] | inhibition at 10 µM (BChE) [%] | inhibition at 1 µM (BChE) [%] | inhibition at 0.1 µM (BChE) [%] | inhibition at 0.01 µM (BChE) [%] | IC50 (AChE) [nM] | inhibition at 1000 µM (AChE) [%] | inhibition at 100 µM (AChE) [%] | inhibition at 10 µM (AChE) [%] | inhibition at 1 µM (AChE) [%] | inhibition at 0.1 µM (AChE) [%] | inhibition at 0.01 µM (AChE) [%] | inhibition at 0.001 µM (AChE) [%] | inhibition at 1000 µM (MAO-B) [%] | inhibition at 100 µM (MAO-B) [%] | IC50 [1] [nM] | other results |
| --- | --- | --- | --- | --- | --- | --- | --- | --- | --- | --- | --- | --- | --- | --- | --- | --- | --- | --- | --- | --- | --- |
| COc1ccc2c(c1)C/C(=C\c1ccc(NC(=O)CN(C)CCN(C)C)cc1)C2=O [D34] | 82.1 ± 1.25 | 38.3 ± 0.458 | 75500 ± 2180 | 132 ± 5.1 | 91.6 ± 1.03 | 76.3 ± 1.14 | 71.9 ± 1.01 | 49.7 ± 0.856 | 31.5 ± 0.405 | 191 ± 8.7 | 98.3 ± 1.11 | 91.1 ± 1.36 | 76 ± 1.12 | 63.4 ± 0.985 | 41.2 ± 0.528 | 32.5 ± 0.588 | 23.5 ± 0.429 | 78.5 ± 1.31 | 47.3 ± 0.676 | 302 ± 14 | inhibition at 0.001 µM (BChE): 20.5 ± 0.399% |
| COc1ccc2c(c1)C(=O)/C(=C/c1ccc(NC(=O)CN(C)CCN(C)C)cc1)C2 [D35] | 88.46 ± 0.758 | 21.7 ± 0.623 | 53900 ± 1220 | 151 ± 4.8 | 90.2 ± 1.39 | 74.6 ± 1.13 | 65.9 ± 1.01 | 54.9 ± 0.974 | 33.4 ± 0.814 | 215 ± 8.8 | 95.7 ± 1.2 | 91.7 ± 1.47 | 73.2 ± 1.12 | 61.8 ± 1.08 | 42.9 ± 0.628 | 33.6 ± 0.52 | 21.5 ± 0.448 | 90.7 ± 1.25 | 42.5 ± 0.547 | 238 ± 11 | inhibition at 0.001 µM (BChE): 18 ± 0.411% |
| COc1cc2c(cc1OC)C(=O)/C(=C/c1ccc(NC(=O)CN(C)CCN(C)C)cc1)C2 [D36] | 82.4 ± 0.873 | 43 ± 0.771 | 3620 ± 129 | – | 100 ± 1.25 | – | – | – | – | 235 ± 11.3 | 91.9 ± 1.47 | 86.6 ± 1.57 | 78.6 ± 1.03 | 58.8 ± 0.893 | 38.2 ± 0.539 | 33.1 ± 0.491 | 20.6 ± 0.374 | 84.6 ± 1.01 | 45.2 ± 0.584 | 251 ± 10 | inhibition at 100 µM (BChE): 41 ± 0.608% |
| COc1ccc2c(c1)C(=O)/C(=C/c1ccc(NC(=O)CN(C)CCCN(C)C)cc1)C2 [D38] | 95 ± 2.39 | 24.1 ± 0.853 | 6810 ± 118 | 78.2 ± 2.9 | 93.3 ± 1.37 | 85.4 ± 1.3 | 78.6 ± 1.11 | 58.7 ± 0.952 | 28.8 ± 0.714 | 47.3 ± 1.6 | 93.2 ± 1.72 | 90.5 ± 1.3 | 81.6 ± 1.17 | 74 ± 0.956 | 68.2 ± 0.862 | 37.2 ± 0.562 | 19.7 ± 0.711 | 94.8 ± 1.43 | 88.6 ± 1.38 | 190 ± 7.8 | inhibition at 100 µM (BChE): 90.6 ± 1.3%; inhibition at 0.001 µM (BChE): 18.4 ± 0.633%; IC50 (MAO-B): 35.9 ± 1.3 nM; inhibition at 10 µM (MAO-B; 10^–5 M): 84.6 ± 1.58%; inhibition at 1 µM (MAO-B; 10^–6 M): 78.2 ± 1.41%; inhibition at 0.1 µM (MAO-B; 10^–7 M): 62.5 ± 0.925%; inhibition at 0.01 µM (MAO-B; 10^–8 M): 42.3 ± 0.623%; inhibition at 0.001 µM (MAO-B; 10^–9 M): 20.7 ± 0.318%; inhibition at 100 µM (Beta Amyloid 1–42 (Aβ42)): > 50% |
| O=C1O[C@H]([C@@H](O)CO)C(O)=C1O [ascorbic acid, reference compound] | – | – | – | – | – | – | – | – | – | – | – | – | – | – | – | – | – | – | – | 165 ± 7 | % DPPH free-radical scavenging (antioxidant) activity ([1]; 10^–3 M): 98.75% ± 1.67; % DPPH free-radical scavenging (antioxidant) activity ([1]; 10^–4 M): 95.22% ± 1.47 |
| O=C(O)CC(O)(CC(=O)O)C(=O)O [citric acid, reference compound] | – | – | – | – | – | – | – | – | – | – | – | – | – | – | – | – | – | – | – | 194 ± 9 | % DPPH free-radical scavenging (antioxidant) activity ([1]; 10^–3 M): 99.48% ± 1.45; % DPPH free-radical scavenging (antioxidant) activity ([1]; 10^–4 M): 94.26% ± 1.37 |
